Each structure is given as a SMILES string. Numbered stars: 1 amine (or outer) side, 2 acyl side, 3 side chain; on linkers, the order of the positions; unused ones are H or OH. Bridge positions count the residues as written; N and C are the ends. Square brackets hold non-standard residues; d marks the D form. Peptide text beside a SMILES is read from it. * marks the point of attachment. C20 diacid = O=C(O)CCCCCCCCCCCCCCCCCCC(=O)*; γGlu = O=C(O)[C@H](CCC(=O)[*:2])N[*:1]; Hyp = O=C(O)[C@@H]1C[C@@H](O)CN1

In the assay the target is T1, hAMY3 receptor (Homo sapiens, UniProt O60896+P30988).
T1 sequence (P30988 25-474): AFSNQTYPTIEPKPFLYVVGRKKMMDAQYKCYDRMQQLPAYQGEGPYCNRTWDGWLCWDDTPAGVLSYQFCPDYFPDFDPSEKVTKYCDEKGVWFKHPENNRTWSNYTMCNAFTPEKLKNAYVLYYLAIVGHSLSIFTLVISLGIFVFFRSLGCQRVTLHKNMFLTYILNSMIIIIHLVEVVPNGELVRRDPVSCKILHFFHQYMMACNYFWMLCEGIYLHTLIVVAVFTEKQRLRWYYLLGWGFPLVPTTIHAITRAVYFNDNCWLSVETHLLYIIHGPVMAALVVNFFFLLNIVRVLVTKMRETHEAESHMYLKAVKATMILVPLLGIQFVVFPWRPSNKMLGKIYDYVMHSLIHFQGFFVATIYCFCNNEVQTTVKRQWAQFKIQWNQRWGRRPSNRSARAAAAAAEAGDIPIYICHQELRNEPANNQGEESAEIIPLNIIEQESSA
T1 sequence (O60896 24-148 partner): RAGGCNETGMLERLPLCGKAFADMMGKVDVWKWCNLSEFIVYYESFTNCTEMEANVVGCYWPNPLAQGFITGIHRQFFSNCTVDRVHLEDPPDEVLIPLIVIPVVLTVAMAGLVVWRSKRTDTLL
Nature of the assay: cAMP assay for in vitro receptor activation, hAMY3-R. The following applies: cAMP assay, hAMY3 receptor; read-out: hAMY3R EC50. The format is cell-based. A digest of the protocol:
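Stable hAMY3 cells; DPBS + 0.05% casein + 0.5 mM IBMX; graded compound doses, 30 min, RT; cAMP via HTRF Gs kit, TR-FRET read at 1 h.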
A general note: cAMP levels reflect the balance of adenylyl cyclase and phosphodiesterase activity.
In general, EC50 refers to the concentration that produces a half-maximal response. As to `CC[C@H](C)[C@H](NC(=O)[C@H](CCCCN)NC(=O)[C@@H](NC(=O)[C@H](CCCNC(=N)N)NC(=O)[C@@H]1CCCN1C(=O)[C@H](C)NC(=O)[C@@H](NC(=O)[C@H](CC(N)=O)NC(=O)[C@H](CC(=O)O)NC(=O)[C@H](CCCCN)NC(=O)[C@H](CC(=O)O)NC(=O)[C@H](CCCCN)NC(=O)[C@H](CC(=O)O)NC(=O)[C@@H](NC(=O)[C@H](Cc1ccccc1)NC(=O)[C@H](CCC(N)=O)NC(=O)[C@H](Cc1ccc(O)cc1)NC(=O)[C@H](CC(C)C)NC(=O)[C@H](Cc1ccccc1)NC(=O)[C@H](Cc1c[nH]cn1)NC(=O)[C@H](C)NC(=O)[C@H](CC(C)C)NC(=O)[C@H](CCCNC(=N)N)NC(=O)[C@H](CCC(N)=O)NC(=O)[C@@H](NC(=O)[C@@H](NC(=O)[C@@H]1CSSC[C@H](NC(=O)CNC(=O)CC[C@H](NC(=O)CCCCCCCCCCCCCCCCCCC(=O)O)C(=O)O)C(=O)N[C@@H](CCCNC(=N)N)C(=O)N[C@@H](Cc2ccccc2)C(=O)NCC(=O)N[C@@H]([C@@H](C)O)C(=O)N1)[C@@H](C)O)C(C)C)[C@@H](C)O)C(C)C)[C@@H](C)O)C(=O)NCC(=O)N1CCC[C@H]1C(=O)N[C@@H](CCC(N)=O)C(=O)NCC(=O)N[C@@H](Cc1ccc(O)cc1)C(N)=O` [compound 390] ({C20 diacid-γGlu}-GCRFGTCTVQRLAHFLYQFTDKDKDNVAPRTKIGPQGY-NH2; disulfide 2-7), the EC50 stood at 0.048 nM.
In the case of `CC[C@H](C)[C@H](NC(=O)[C@H](CCC(N)=O)NC(=O)[C@H](Cc1c[nH]cn1)NC(=O)[C@H](C)NC(=O)[C@H](CC(C)C)NC(=O)[C@H](CCCNC(=N)N)NC(=O)[C@H](CCC(N)=O)NC(=O)[C@@H](NC(=O)[C@@H](NC(=O)[C@@H]1CSSC[C@H](NC(=O)[C@H](CCCCN)NC(=O)CC[C@H](NC(=O)CCCCCCCCCCCCCCCCCCC(=O)O)C(=O)O)C(=O)N[C@@H](CC(N)=O)C(=O)N[C@@H]([C@@H](C)O)C(=O)N[C@@H](C)C(=O)N[C@@H]([C@@H](C)O)C(=O)N1)[C@@H](C)O)C(C)C)C(=O)N[C@@H](Cc1ccc(O)cc1)C(=O)N[C@@H](CCC(N)=O)C(=O)N[C@@H](Cc1ccccc1)C(=O)N[C@@H](CO)C(=O)N[C@@H](CC(=O)O)C(=O)N[C@@H](CCCCN)C(=O)N[C@@H](CC(=O)O)C(=O)N[C@@H](CCCCN)C(=O)N[C@@H](CC(=O)O)C(=O)N[C@@H](CC(N)=O)C(=O)N[C@H](C(=O)N[C@@H](C)C(=O)N1CCC[C@H]1C(=O)N1CCC[C@H]1C(=O)N[C@H](C(=O)N[C@@H](CC(N)=O)C(=O)N[C@H](C(=O)NCC(=O)N[C@@H](CO)C(=O)N[C@@H](CC(N)=O)C(=O)NCC(=O)N1C[C@H](O)C[C@H]1C(N)=O)C(C)C)[C@@H](C)O)C(C)C` [compound 57] ({C20 diacid-γGlu}-KCNTATCTVQRLAHQIYQFSDKDKDNVAPPTNVGSNG[Hyp]-NH2; disulfide 2-7), the EC50 was 0.012 nM.
As to `CC[C@H](C)[C@H](NC(=O)[C@H](CCC(N)=O)NC(=O)[C@H](Cc1c[nH]cn1)NC(=O)[C@H](C)NC(=O)[C@H](CC(C)C)NC(=O)[C@H](CCCNC(=N)N)NC(=O)[C@H](CCC(N)=O)NC(=O)[C@@H](NC(=O)[C@@H](NC(=O)[C@@H]1CSSC[C@H](NC(=O)[C@@H](N)CCCCN)C(=O)N[C@@H](CC(N)=O)C(=O)N[C@@H](Cc2ccccc2)C(=O)N[C@@H](C)C(=O)N[C@@H]([C@@H](C)O)C(=O)N1)[C@@H](C)O)C(C)C)C(=O)N[C@@H](Cc1ccc(O)cc1)C(=O)N[C@@H](CCC(N)=O)C(=O)N[C@@H](Cc1ccccc1)C(=O)N[C@H](C(=O)N[C@@H](CC(=O)O)C(=O)N[C@@H](CCCCN)C(=O)N[C@@H](CC(=O)O)C(=O)N[C@@H](CCCCN)C(=O)N[C@@H](CC(=O)O)C(=O)N[C@@H](CC(N)=O)C(=O)N[C@H](C(=O)N[C@@H](C)C(=O)N1CCC[C@H]1C(=O)N[C@@H](CCCNC(=N)N)C(=O)N[C@H](C(=O)N[C@@H](CCC(=O)O)C(=O)N[C@H](C(=O)NCC(=O)N[C@@H](CO)C(=O)N[C@@H](CC(N)=O)C(=O)NCC(=O)N1C[C@H](O)C[C@H]1C(N)=O)C(C)C)[C@@H](C)O)C(C)C)[C@@H](C)O` [compound 17] (H-KCNFATCTVQRLAHQIYQFTDKDKDNVAPRTEVGSNG[Hyp]-NH2; disulfide 2-7; N-terminus assumed), the EC50 worked out at 0.008 nM.
Turning to `CC(C)C[C@H](NC(=O)[C@H](CCCNC(=N)N)NC(=O)[C@H](CCC(N)=O)NC(=O)[C@@H](NC(=O)[C@@H](NC(=O)[C@@H]1CSSC[C@H](NC(=O)CNC(=O)CC[C@H](NC(=O)CCCCCCCCCCCCCCCCCCC(=O)O)C(=O)O)C(=O)N[C@@H](CCCNC(=N)N)C(=O)N[C@@H](Cc2ccccc2)C(=O)NCC(=O)N[C@@H]([C@@H](C)O)C(=O)N1)[C@@H](C)O)C(C)C)C(=O)N[C@@H](C)C(=O)N[C@@H](Cc1c[nH]cn1)C(=O)N[C@@H](Cc1ccccc1)C(=O)N[C@@H](CC(C)C)C(=O)N[C@@H](Cc1ccc(O)cc1)C(=O)N[C@@H](CCC(N)=O)C(=O)N[C@@H](Cc1ccccc1)C(=O)N[C@H](C(=O)N[C@@H](CC(=O)O)C(=O)N[C@@H](CCCCN)C(=O)N[C@@H](CC(=O)O)C(=O)N[C@@H](CCCCN)C(=O)N[C@@H](CC(=O)O)C(=O)N[C@@H](CC(N)=O)C(=O)N[C@H](C(=O)N[C@@H](C)C(=O)N1CCC[C@H]1C(=O)N[C@@H](CCCNC(=N)N)C(=O)N[C@H](C(=O)N[C@@H](CCCCN)C(=O)N[C@H](C(=O)NCC(=O)N[C@@H](CO)C(=O)N[C@@H](CC(N)=O)C(=O)NCC(=O)N[C@@H](Cc1ccc(O)cc1)C(N)=O)C(C)C)[C@@H](C)O)C(C)C)[C@@H](C)O` [compound 223] ({C20 diacid-γGlu}-GCRFGTCTVQRLAHFLYQFTDKDKDNVAPRTKVGSNGY-NH2; disulfide 2-7), the EC50 was 0.186 nM.
The result for `CC[C@H](C)[C@H](NC(=O)[C@H](CCC(N)=O)NC(=O)[C@H](Cc1c[nH]cn1)NC(=O)[C@H](C)NC(=O)[C@H](CC(C)C)NC(=O)[C@H](CCCNC(=N)N)NC(=O)[C@H](CCC(N)=O)NC(=O)[C@@H](NC(=O)[C@@H](NC(=O)[C@@H]1CSSC[C@H](NC(=O)[C@@H](N)CCCCN)C(=O)N[C@@H](CC(N)=O)C(=O)N[C@@H]([C@@H](C)O)C(=O)N[C@@H](C)C(=O)N[C@@H]([C@@H](C)O)C(=O)N1)[C@@H](C)O)C(C)C)C(=O)N[C@@H](Cc1ccc(O)cc1)C(=O)N[C@@H](CCC(N)=O)C(=O)N[C@@H](Cc1ccccc1)C(=O)N[C@H](C(=O)N[C@@H](CC(=O)O)C(=O)N[C@@H](CCCCN)C(=O)N[C@@H](CC(=O)O)C(=O)N[C@@H](CCCCN)C(=O)N[C@@H](CC(=O)O)C(=O)N[C@@H](CC(N)=O)C(=O)N[C@H](C(=O)N[C@@H](C)C(=O)N1CCC[C@H]1C(=O)N[C@@H](CCCNC(=N)N)C(=O)N[C@H](C(=O)N[C@@H](CCCCN)C(=O)N[C@H](C(=O)NCC(=O)N[C@@H](CO)C(=O)N[C@@H](CC(N)=O)C(=O)NCC(=O)N[C@@H](Cc1ccc(O)cc1)C(N)=O)C(C)C)[C@@H](C)O)C(C)C)[C@@H](C)O` [compound 34] (H-KCNTATCTVQRLAHQIYQFTDKDKDNVAPRTKVGSNGY-NH2; disulfide 2-7; N-terminus assumed) reads 0.009 nM.

Values taken from patent US12139520B2 (priority 2020, dated 2024).
